Measurements as given in US20080280953A1, “Agents Used for the Treatment of Seeds” (Bayer Cropscience AG, priority 2004, published 2008).
Several values for one entry are separate records, joined by “and”; a condition that tells them apart may be missing. Equal entries are not always repeated.

Key:
[1] = test system: white fly (Bemisia tabaci), normal sensitive strain; experiment: Bemisia tabaci test (normal sensitive strain), spraying of infested cotton plants; assay type: in vivo; conditions: 100 ppm, spray on cotton plants
Method: (§1) To prepare a suitable active compound preparation 1 part by weight of the active compound is mixed with the given amount of solvent and emulsifier and the concentrate is diluted to the desired concentration with water containing emulsifier.
Cotton plants (Gossypium hirsutum) that are infested with eggs, larvae and pupae of the white fly (Bemisia tabaci) are treated by, spraying with the active compound preparation at the desired concentration.
After the desired time the death rate in % is determined. Here 100% means that all animals were killed; 0% means that no animals were killed.

[2] = test system: leafminer fly (Liriomyza trifolii) larvae; experiment: Liriomyza trifolii test, spraying of kidney bean plants; assay type: in vivo; conditions: 100 ppm, spray on kidney bean plants
Method: as §1
Kidney bean plants (Phaseolus vulgaris) that are infected with the larvae of the leafminer fly (Liriomyza trifolii) are treated by spraying with the active compound mixture at the desired concentration.
After the desired time the activity in % is determined.

Q: For `CN(Cc1ccc(Cl)nc1)C1=CC(=O)OC1` [Compound 84], which “Death rate in % after 14 d” value [1] is on record?
A: 100%

Q: What about the “Activity in % after 7 d” value [2] of the same compound?
A: 55% and 46%
